Experiment: xn = mol fraction of the nth substance listed
Settings: 101 kPa, Liquid; for speed of sound: Sing-around technique in a fixed-path interferometer

CCOC(C)(C)C [2-ethoxy-2-methylpropane] + Cc1ccccc1C
Settings | mass density [kg/m3] | speed of sound [m/s]
288.15 K, x1 = 0.055 | 875.654 | 1371.2
288.15 K, x1 = 0.098 | 870.017 | 1357.8
288.15 K, x1 = 0.201 | 855.684 | 1324.8
288.15 K, x1 = 0.307 | 840.866 | 1290.1
288.15 K, x1 = 0.4 | 827.772 | 1261.6
288.15 K, x1 = 0.502 | 813.516 | 1228.9
288.15 K, x1 = 0.601 | 800.311 | 1199
288.15 K, x1 = 0.661 | 791.943 | 1180.1
288.15 K, x1 = 0.803 | 772.557 | 1137.4
288.15 K, x1 = 0.895 | 759.896 | 1110.2
288.15 K, x1 = 0.947 | 752.872 | 1095
288.15 K, x1 = 1 | 744.955 | 1076.4
290.65 K, x1 = 0.055 | 873.542 | 1360.8
290.65 K, x1 = 0.098 | 867.884 | 1347.3
290.65 K, x1 = 0.201 | 853.503 | 1314.3
290.65 K, x1 = 0.307 | 838.637 | 1279.4
290.65 K, x1 = 0.4 | 825.503 | 1251
290.65 K, x1 = 0.502 | 811.198 | 1218.2
290.65 K, x1 = 0.601 | 797.952 | 1188.2
290.65 K, x1 = 0.661 | 789.556 | 1169.2
290.65 K, x1 = 0.803 | 770.105 | 1126.4
290.65 K, x1 = 0.895 | 757.404 | 1099.4
290.65 K, x1 = 0.947 | 750.354 | 1084.5
290.65 K, x1 = 1 | 742.482 | 1065.1
293.15 K, x1 = 0.055 | 871.419 | 1350.4
293.15 K, x1 = 0.098 | 865.74 | 1336.8
293.15 K, x1 = 0.201 | 851.313 | 1303.8
293.15 K, x1 = 0.307 | 836.397 | 1268.7
293.15 K, x1 = 0.4 | 823.223 | 1240.4
293.15 K, x1 = 0.502 | 808.871 | 1207.4
293.15 K, x1 = 0.601 | 795.578 | 1177.3
293.15 K, x1 = 0.661 | 787.156 | 1158.3
293.15 K, x1 = 0.803 | 767.641 | 1115.4
293.15 K, x1 = 0.895 | 754.895 | 1088.5
293.15 K, x1 = 0.947 | 747.821 | 1073.5
293.15 K, x1 = 1 | 739.947 | 1053.7
295.65 K, x1 = 0.055 | 869.295 | 1339.8
295.65 K, x1 = 0.098 | 863.594 | 1326.3
295.65 K, x1 = 0.201 | 849.119 | 1293.2
295.65 K, x1 = 0.307 | 834.156 | 1257.9
295.65 K, x1 = 0.4 | 820.937 | 1229.6
295.65 K, x1 = 0.502 | 806.537 | 1196.5
295.65 K, x1 = 0.601 | 793.199 | 1166.3
295.65 K, x1 = 0.661 | 784.75 | 1147.3
295.65 K, x1 = 0.803 | 765.167 | 1104.3
295.65 K, x1 = 0.895 | 752.377 | 1077.3
295.65 K, x1 = 0.947 | 745.278 | 1062.5
295.65 K, x1 = 1 | 737.374 | 1042.2
298.15 K, x1 = 0.055 | 867.167 | 1329.3
298.15 K, x1 = 0.098 | 861.446 | 1315.8
298.15 K, x1 = 0.201 | 846.922 | 1282.7
298.15 K, x1 = 0.307 | 831.91 | 1247.3
298.15 K, x1 = 0.4 | 818.651 | 1218.9
298.15 K, x1 = 0.502 | 804.2 | 1185.7
298.15 K, x1 = 0.601 | 790.817 | 1155.5
298.15 K, x1 = 0.661 | 782.341 | 1136.4
298.15 K, x1 = 0.803 | 762.689 | 1093.3
298.15 K, x1 = 0.895 | 749.853 | 1066.3
298.15 K, x1 = 0.947 | 742.726 | 1051.4
298.15 K, x1 = 1 | 734.806 | 1031
300.65 K, x1 = 0.055 | 865.039 | 1318.9
300.65 K, x1 = 0.098 | 859.296 | 1305.5
300.65 K, x1 = 0.201 | 844.725 | 1272.3
300.65 K, x1 = 0.307 | 829.661 | 1236.7
300.65 K, x1 = 0.4 | 816.36 | 1208.3
300.65 K, x1 = 0.502 | 801.859 | 1175
300.65 K, x1 = 0.601 | 788.431 | 1144.7
300.65 K, x1 = 0.661 | 779.923 | 1125.5
300.65 K, x1 = 0.803 | 760.203 | 1082.3
300.65 K, x1 = 0.895 | 747.321 | 1055.2
300.65 K, x1 = 0.947 | 740.169 | 1040.3
300.65 K, x1 = 1 | 732.225 | 1019.8
303.15 K, x1 = 0.055 | 862.904 | 1308.4
303.15 K, x1 = 0.098 | 857.143 | 1295.2
303.15 K, x1 = 0.201 | 842.523 | 1262
303.15 K, x1 = 0.307 | 827.409 | 1226.2
303.15 K, x1 = 0.4 | 814.064 | 1197.8
303.15 K, x1 = 0.502 | 799.512 | 1164.3
303.15 K, x1 = 0.601 | 786.037 | 1133.9
303.15 K, x1 = 0.661 | 777.502 | 1114.7
303.15 K, x1 = 0.803 | 757.711 | 1071.3
303.15 K, x1 = 0.895 | 744.78 | 1044.2
303.15 K, x1 = 0.947 | 737.602 | 1029.1
303.15 K, x1 = 1 | 729.647 | 1008.6
305.65 K, x1 = 0.055 | – | 1298
305.65 K, x1 = 0.098 | – | 1285
305.65 K, x1 = 0.201 | – | 1251.6
305.65 K, x1 = 0.307 | – | 1215.8
305.65 K, x1 = 0.4 | – | 1187.3
305.65 K, x1 = 0.502 | – | 1153.6
305.65 K, x1 = 0.601 | – | 1123.1
305.65 K, x1 = 0.661 | – | 1103.9
305.65 K, x1 = 0.803 | – | 1060.3
305.65 K, x1 = 0.895 | – | 1033.2
305.65 K, x1 = 0.947 | – | 1018
305.65 K, x1 = 1 | – | 997.52
